Assay: Plasma clearance of 125I-TGF-β2 with and without α2M* and arachidonic acid
Format: in vivo, mice
Details: control experiments, no α2M*
Procedure: TGF ? β1-α2M* and TGF- ? 2- ? 2M* complexes are cleared from plasma by the ? liver (30). To test the possibility that fatty acids may be able to affect the plasma clearance of TGF ? β and α2M* complexes, ^125I-TGF ? β1 or ^125I-TGF- ? 2 were prei presence or absence of 10 μM arachidonic acid at room temperature for 30 min, and then injected into mice via tail vein according to published procedures (19). At several time intervals (10 sec, 1, 2, 3, 5, 10, 15, 20, 30 and 60 min) about 50 μl of blood was collected and counted by a γ-counter. […] The t 1+α2M* or ^125I-TGF- ? 2+α2M* were approximately 4 min. These twith published values of free ^125I-TGF- ? 1,2 and ^125I-TGF- ? 1,2-α2M* complexes, respe (19). In the presence of arachidonic acid, the t1/2s of ^125I-TGF ? β1+α2M* and ^125I-TGF α2M* were decreased to approximately 1-2 min; these are essentially identical to the t1/2s of free ^125I-TGF- ? 1 and ^125I-TGF ? β2 (FIGS. 7A and B). In control experiments, arachidonic acid did no affect the plasma clearance of free ^125I-TGF ? β1 and ^125I-TGF- ? 2.
Plasma clearance of ^125I-TGF ? β in the presence and absence of ? 2M*-^125I-TGF- ? 1 nM) or ^125I-TGF- ? 2 (1 nM) was pre-incubated with ? […] The radioactivity in the blood sample obtained at 10 s was taken as 100%.

For `CCCCC/C=C\C/C=C\C/C=C\C/C=C\CCCC(=O)O` [arachidonic acid], which “effect on plasma clearance of free 125I-TGF-β2” value is on record?
Its value is “did no affect”.

Source: patent US20040229791A1, “Compositions and methods of modulating TGF-beta activity by fatty acids” (priority 2002, published 2004)
